Tested on: diabetes patients
Test: Clinical experiment examples: fasting blood glucose of diabetes patients
Format: in vivo, human
From the text: In another preferred embodiment of the present invention, the tea bricks after the above-mentioned about 2-year aging time are pulled apart and left in the air for about 30 days for oxidization. After the loosen tea leaves are oxidized for about 30 days, they are smashed into small particles or powders. And then another 5 parts (by weight) to 15 parts (by weight) of blended tangerine peels are taken and smashed into particles or powders. The above-mentioned tangerine peels, in particles or powders form, are blended into the above-mentioned black teas, in particles or powders form. Then the composition can be used as the traditional Chinese medical tea drinks for treating diabetes. General patients can drink the tea once or twice a day, each time 5-10 grams. Severe patients can drink twice a day, each time 10-20 grams.
Clinical Experiment Examples
Oct. 23, 2016: fasting blood glucose was 8.9 mml. The patient administrated metformin, three times a day, one tablet each time before meals.
Oct. 29, 2016: the value of fasting blood glucose was 6.8 mml, and the traditional Chinese medicine tea drinks of the present invention were administrated twice a day, each time 5 grams of the tea, with the continuation of administration of the metformin.
Subject: The patient is a person, who has a long history of diabetes. Before drinking the traditional Chinese medicine tea drinks of the present invention, the subject administrated hypoglycemic agents (metformin) for long before each meal, each time 2 tablets. Test results (measured on empty stomach at 7 o'clock in the morning)
From the above case, it can be seen that only administration of metformin to decrease blood glucose would not lead to a good controlling effect, and the average value of blood glucose was 12.3 mml with a large fluctuation that varies from the 8.5 mml to the highest 19.5 mml After drinking the traditional Chinese medicine tea drinks of the present invention (brewing 1 to 2 bags every day), the average value of blood glucose was 8.6 mml with a steady trend where the values were fluctuated within 7-10 mml without the occurrence of very high measured results.

`CN(C)C(=N)N=C(N)N` [metformin] gave a fasting blood glucose (Case 1, Oct. 23, 2016, metformin three times a day, one tablet before meals (first day reported)) of 8.9 mml, a fasting blood glucose (Case 1, Oct. 24, 2016, metformin only) of 7.5 mml and a fasting blood glucose (Case 1, Oct. 25, 2016, metformin only) of 7.4 mml. The fasting blood glucose (Case 1, Oct. 26, 2016, metformin only, big dinner and wine the evening before) was 8.3 mml, the fasting blood glucose (Case 1, Oct. 29, 2016, on metformin, day the tea drinks (twice a day, 5 grams) were started) was 6.8 mml and the “measured average value of blood glucose” value (Case 1, metformin, 9 days from October 20 to October 29) was 7.5 mml. The “blood glucose measured on empty stomach at 7 o'clock in the morning” value (from here on “blood glucose measured on empty stomach”) (Case 2, metformin only (2 tablets before each meal), Aug. 24, 2016) was 9.4 mml, the “blood glucose measured on empty stomach” value (Case 2, metformin only, Aug. 28, 2016) was 9.9 mml and the “blood glucose measured on empty stomach” value (Case 2, metformin only, Dec. 2, 2016) was 11.8 mml. The “blood glucose measured on empty stomach” value (Case 2, metformin only, Dec. 9, 2016) was 12.6 mml, the “blood glucose measured on empty stomach” value (Case 2, metformin only, Dec. 14, 2016) was 11.9 mml and the “blood glucose measured on empty stomach” value (Case 2, metformin only, Dec. 18, 2016) was 12.3 mml. For the same compound, the “blood glucose measured on empty stomach” value (Case 2, metformin only, Dec. 24, 2016) was 12.5 mml, the “blood glucose measured on empty stomach” value (Case 2, metformin only, Dec. 28, 2016) was 14.7 mml and the “blood glucose measured on empty stomach” value (Case 2, metformin only, Jan. 2, 2017) was 13.3 mml. The “blood glucose measured on empty stomach” value (Case 2, metformin only, Jan. 6, 2017) was 11.8 mml, the “blood glucose measured on empty stomach” value (Case 2, metformin only, Nov. 1, 2016) was 14.5 mml and the “blood glucose measured on empty stomach” value (Case 2, metformin only, Nov. 5, 2016) was 13.4 mml. The “blood glucose measured on empty stomach” value (Case 2, metformin only, Nov. 10, 2016) was 11.1 mml, the “blood glucose measured on empty stomach” value (Case 2, metformin only, Nov. 13, 2016) was 13 mml and the “blood glucose measured on empty stomach” value (Case 2, metformin only, Nov. 18, 2016) was 14 mml. For the same compound, the “blood glucose measured on empty stomach” value (Case 2, metformin only, Nov. 20, 2016) was 8.5 mml, the “blood glucose measured on empty stomach” value (Case 2, metformin only, Nov. 27, 2016) was 9.4 mml and the “blood glucose measured on empty stomach” value (Case 2, metformin only, Oct. 1, 2016) was 11 mml. For the same compound, the “blood glucose measured on empty stomach” value (Case 2, metformin only, Oct. 4, 2016) was 12.7 mml, the “blood glucose measured on empty stomach” value (Case 2, metformin only, Oct. 11, 2016) was 15.9 mml and the “blood glucose measured on empty stomach” value (Case 2, metformin only, Oct. 24, 2016) was 19.5 mml. For the same compound, the “blood glucose measured on empty stomach” value (Case 2, metformin only, Sep. 3, 2016) was 12.5 mml, the “blood glucose measured on empty stomach” value (Case 2, metformin only, Sep. 11, 2016) was 8.7 mml and the “blood glucose measured on empty stomach” value (Case 2, metformin only, Sep. 23, 2016) was 11.6 mml. The “average value of blood glucose” value (Case 2, only administration of metformin) was 12.3 mml.
